ChEMBL document CHEMBL1201862, “PubChem BioAssay data set” (2004)
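The compound was tested at five concentrations on cells cultured in 96-well plates, with a 48-hour exposure period. Abbreviation: GI50, concentration required for 50% inhibition of growth.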 Activity calls are given as the source filed them. Cut-off read from the data, not from the text of the source: active = GI50 up to about 1.1 µM and inactive = higher.

Legend:
Test in all cases: inhibition of tumour cell growth, NCI panel, 48 h
Hs-578T = test system: Hs-578T
RPMI-8226 = test system: RPMI-8226
MDA-MB-435 = test system: MDA-MB-435
OVCAR-3 = test system: OVCAR-3
SF-539 = test system: SF-539
SK-OV-3 = test system: SK-OV-3
KM12 = test system: KM12
SK-MEL-5 = test system: SK-MEL-5
HOP-92 = test system: HOP-92
CAKI-1 = test system: CAKI-1
SNB-19 = test system: SNB-19
OVCAR-4 = test system: OVCAR-4
TK-10 = test system: TK-10
CCRF-CEM = test system: CCRF-CEM
A549 = test system: A549
SF-295 = test system: SF-295
OVCAR-5 = test system: OVCAR-5
IGROV-1 = test system: IGROV-1
PC-3 = test system: PC-3
SR = test system: SR

SMILES | GI50 (Hs-578T) | GI50 (RPMI-8226) | GI50 (MDA-MB-435) | GI50 (OVCAR-3) | GI50 (SF-539) | GI50 (SK-OV-3) | GI50 (KM12) | GI50 (SK-MEL-5) | GI50 (HOP-92) | GI50 (CAKI-1) | GI50 (SNB-19) | GI50 (OVCAR-4) | GI50 (TK-10) | GI50 (CCRF-CEM) | GI50 (A549) | GI50 (SF-295) | GI50 (OVCAR-5) | GI50 (IGROV-1) | GI50 (PC-3) | GI50 (SR)
CC1=NN(c2nc(N)nc(-c3sccc3N)n2)C(C)(C)C1 | 89.3 µM (inactive) | 31.8 µM (inactive) | 45 µM (inactive) | > 100 µM (inactive) | > 100 µM (inactive) | > 100 µM (inactive) | 46.1 µM (inactive) | 41.1 µM (inactive) | > 100 µM (inactive) | > 100 µM (inactive) | > 100 µM (inactive) | 21.7 µM (inactive) | > 100 µM (inactive) | 43.6 µM (inactive) | 35.8 µM (inactive) | 92.5 µM (inactive) | > 100 µM (inactive) | > 100 µM (inactive) |  | 
COc1ccc(NC(=O)/C(O)=C/C(=O)c2ccccc2)cc1 |  | > 10 µM (inactive) | > 10 µM (inactive) |  |  | > 10 µM (inactive) | > 10 µM (inactive) | > 10 µM (inactive) | > 10 µM (inactive) | > 10 µM (inactive) |  | > 10 µM (inactive) | > 10 µM (inactive) | 2.53 µM (inactive) | > 10 µM (inactive) | > 10 µM (inactive) |  | 7.38 µM (inactive) | > 10 µM (inactive) | 1.74 µM (inactive)
N#C/C(=C\c1ccccc1F)C(=O)c1ccccc1 |  | > 100 µM (inactive) |  | > 100 µM (inactive) | > 100 µM (inactive) | > 100 µM (inactive) | > 100 µM (inactive) | > 100 µM (inactive) | > 100 µM (inactive) | > 100 µM (inactive) | > 100 µM (inactive) | > 100 µM (inactive) | > 100 µM (inactive) | > 100 µM (inactive) | > 100 µM (inactive) | > 100 µM (inactive) | > 100 µM (inactive) | > 100 µM (inactive) |  | > 100 µM (inactive)
CN(C)CCNC(=O)c1cc(-c2nccn2C)nc2ccccc12 |  | > 100 µM (inactive) | > 100 µM (inactive) |  | > 100 µM (inactive) |  | > 100 µM (inactive) | > 100 µM (inactive) | 64.7 µM (inactive) | > 100 µM (inactive) | > 100 µM (inactive) |  | > 100 µM (inactive) | > 100 µM (inactive) | > 100 µM (inactive) |  | > 100 µM (inactive) | > 100 µM (inactive) | > 100 µM (inactive) | > 100 µM (inactive)
CC1CCCc2c(CC3CC(=O)NC(=O)C3)nc(N)nc21 (centres undefined) |  | > 100 µM (inactive) | > 100 µM (inactive) | > 100 µM (inactive) | > 100 µM (inactive) | > 100 µM (inactive) | > 100 µM (inactive) | > 100 µM (inactive) | > 100 µM (inactive) | > 100 µM (inactive) |  | > 100 µM (inactive) | > 100 µM (inactive) | > 100 µM (inactive) | > 100 µM (inactive) | > 100 µM (inactive) | > 100 µM (inactive) | > 100 µM (inactive) | > 100 µM (inactive) | > 100 µM (inactive)
COc1cc(C2SCCCCCCCCCCSC(c3ccc(O)c(OC)c3)SCCCCCCCCCCS2)ccc1O (centres undefined) |  | > 100 µM (inactive) | > 100 µM (inactive) |  |  | > 100 µM (inactive) | > 100 µM (inactive) | > 100 µM (inactive) | > 100 µM (inactive) | > 100 µM (inactive) | > 100 µM (inactive) | > 100 µM (inactive) | > 100 µM (inactive) | < 0.01 µM (active) | > 100 µM (inactive) | > 100 µM (inactive) | > 100 µM (inactive) | > 100 µM (inactive) | > 100 µM (inactive) | 56.1 µM (inactive)
COc1c(Br)cc(/C=C(\C#N)c2ccccn2)cc1Br |  | > 100 µM (inactive) |  | > 100 µM (inactive) | 33.4 µM (inactive) | 15.3 µM (inactive) | > 100 µM (inactive) | > 100 µM (inactive) |  | > 100 µM (inactive) | > 100 µM (inactive) |  | 67.6 µM (inactive) | > 100 µM (inactive) | > 100 µM (inactive) | 19.2 µM (inactive) | > 100 µM (inactive) | 51.4 µM (inactive) | > 100 µM (inactive) | > 100 µM (inactive)
CC(C)C[C@H](NC(=O)[C@@H](N)Cc1cccc2ccccc12)B(O)O |  | < 0.0164 µM (active) | < 0.0134 µM (active) | < 0.0149 µM (active) | 0.0143 µM (active) | 0.0703 µM (active) | 0.0281 µM (active) | < 0.0169 µM (active) | 0.398 µM (active) | < 0.0164 µM (active) | 2.47 µM (inactive) | 0.232 µM (active) | < 0.0182 µM (active) |  | 0.0766 µM (active) | < 0.0241 µM (active) | 0.0272 µM (active) | 0.0665 µM (active) | 0.0667 µM (active) | < 0.0154 µM (active)
